According to US20220296595A1, “CDK INHIBITORS” (QILU REGOR THERAPEUTICS INC., priority 2019, published 2022):
Where two headings read alike, the source gives them in different places.

Legend:
CDK4/CyclinD1 = biological target: T1, CDK4/CyclinD1 (Homo sapiens, UniProt P11802); assay: Assay for inhibition of CDK4/CyclinD1 (Caliper microfluidic kinase assay); assay type: biochemical
T1 construct: purchased Thermofisher PR8064A
Procedure, shortened: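 Caliper microfluidic mobility-shift assay tracking phosphorylation of 1 μM FL-34 peptide by 1 nM CDK4/CyclinD1 with 200 μM ATP in HEPES pH 7.5 buffer with 10 mM MgCl2. Reaction ran 3 h at room temperature, was stopped with EDTA, and IC50 came from a 4-parameter sigmoidal fit.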

CDK6/CyclinD3 = biological target: T2, CDK6/CyclinD3 (Homo sapiens, UniProt Q00534); assay: Assay for inhibition of CDK6/CyclinD3 (Caliper microfluidic kinase assay); assay type: biochemical
T2 construct: purchased Carna 04-107
T2 sequence (Q00534 whole entry): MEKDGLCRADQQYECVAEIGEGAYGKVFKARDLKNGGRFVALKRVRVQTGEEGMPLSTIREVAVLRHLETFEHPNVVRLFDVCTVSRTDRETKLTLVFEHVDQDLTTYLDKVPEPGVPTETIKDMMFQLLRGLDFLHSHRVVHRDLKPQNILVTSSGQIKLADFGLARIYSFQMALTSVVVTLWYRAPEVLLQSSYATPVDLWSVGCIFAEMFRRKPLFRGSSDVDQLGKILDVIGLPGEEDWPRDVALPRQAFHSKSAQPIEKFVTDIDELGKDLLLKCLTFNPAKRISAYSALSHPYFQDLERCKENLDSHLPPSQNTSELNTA
T2 sequence (P30281 whole entry partner): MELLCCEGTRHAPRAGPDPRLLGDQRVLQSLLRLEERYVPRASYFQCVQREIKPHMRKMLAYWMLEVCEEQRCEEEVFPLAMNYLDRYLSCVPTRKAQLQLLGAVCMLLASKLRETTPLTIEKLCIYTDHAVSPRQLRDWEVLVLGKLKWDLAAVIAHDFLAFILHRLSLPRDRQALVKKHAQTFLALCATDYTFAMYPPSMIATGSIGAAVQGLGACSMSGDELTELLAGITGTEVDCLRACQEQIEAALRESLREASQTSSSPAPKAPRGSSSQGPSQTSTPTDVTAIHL
Procedure, shortened: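 Caliper mobility-shift readout of FAM-labelled peptide (FL-34, 1 μM) phosphorylation by 2 nM CDK6/CyclinD3 at 300 μM ATP in HEPES pH 7.5 buffer with MgCl2, DTT; 3 h at room temperature, EDTA stop. IC50 from 4-parameter sigmoidal fit.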

T47D breast cancer cells = assay: Anti-proliferation assay in T47D cell (Cyquant, day 6); assay type: cell-based, human; settings: Homo sapiens, T47D, anti-proliferation, T47D cells; read-out: T47D IC50
Procedure, shortened: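 Cells were grown in RPMI 1640 with 10% FBS at 37 °C and dosed the day after plating at ten concentrations, 10 μM to 0.51 nM in 3-fold steps. CyQuant fluorescence (ex 485/em 535 nm) was read on day 6. IC50 was fitted from baseline-subtracted viability curves, with the baseline read after overnight culture.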

[1] = system: phosphorylation of Retinoblastoma Protein (pRb Ser807/811 or Ser780) in T47D cells; assay: Inhibition of phosphorylation of retinoblastoma protein (pRb) in T47D cell (ELISA); assay type: cell-based, human; settings: Homo sapiens, T47D, read-out: Phospho T47D Ser807 IC50, pRb Ser807 phosphorylation, T47D cells
Procedure, shortened: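 T47D cells in RPMI 1640 + 10% FBS, adhered overnight, then treated 24 h with 3-fold compound titrations (top concentration […]). Lysates assayed by sandwich ELISA for pRb Ser807/811 or Ser780 with HRP/TMB detection. IC50 from 4-parameter sigmoidal fit.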

CDK2/CyclinE1 = biological target: T3, CDK2/CyclinE1 (Homo sapiens, UniProt P24941); assay: Assay for inhibition of CDK2/CyclinE1 (Caliper microfluidic kinase assay); assay type: biochemical; settings: read-out: CDK2 IC50
T3 construct: purchased SignalChem C29-18G
Procedure, shortened: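 Caliper microfluidic mobility-shift assay: 5 nM CDK2/CyclinE1, 100 μM ATP, 5 μM FL-18 peptide (5-FAM-QSPKKG-NH2) in pH 7.5 HEPES buffer with MgCl2, DTT, BSA, Triton X-100. Incubated 3 hours at room temperature, EDTA-stopped; IC50 from 4-parameter sigmoidal fit.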

T1 sequence (P11802 whole entry): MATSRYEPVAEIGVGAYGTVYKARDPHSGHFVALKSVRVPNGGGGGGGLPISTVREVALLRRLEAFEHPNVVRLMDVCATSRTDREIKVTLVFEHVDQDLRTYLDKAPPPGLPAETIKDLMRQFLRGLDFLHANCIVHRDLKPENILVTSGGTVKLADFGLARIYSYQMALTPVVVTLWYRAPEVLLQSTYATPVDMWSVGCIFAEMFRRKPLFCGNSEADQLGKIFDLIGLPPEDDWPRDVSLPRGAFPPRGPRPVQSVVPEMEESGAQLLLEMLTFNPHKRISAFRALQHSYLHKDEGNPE
T1 sequence (P24385 whole entry partner): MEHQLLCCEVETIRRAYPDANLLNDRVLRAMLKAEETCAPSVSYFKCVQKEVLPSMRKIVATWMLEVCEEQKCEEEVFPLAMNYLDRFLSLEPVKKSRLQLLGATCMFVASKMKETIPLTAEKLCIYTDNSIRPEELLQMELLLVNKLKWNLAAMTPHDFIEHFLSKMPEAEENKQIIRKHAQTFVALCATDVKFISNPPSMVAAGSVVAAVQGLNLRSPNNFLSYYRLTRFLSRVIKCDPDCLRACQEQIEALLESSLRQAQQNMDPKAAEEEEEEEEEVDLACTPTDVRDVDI

Row | Structure (SMILES) | IC50 (CDK4/CyclinD1; CDK4/CyclinD1, 200 μM ATP) | IC50 (CDK6/CyclinD3; CDK6/CyclinD3, 300 μM ATP) | IC50 (T47D breast cancer cells) | IC50 [1] | IC50 (CDK2/CyclinE1; CDK2/CyclinE1, 100 μM ATP) | IC50 (CDK4/CyclinD1; CDK4/CyclinD1) | IC50 (CDK6/CyclinD3; CDK6/CyclinD3) | IC50 (CDK2/CyclinE1; CDK2/CyclinE1)
1 | CC(C)n1cnc2c(F)nc(-c3ccnc(Nc4ccc(N5CC6CC5CN6)cn4)n3)cc21 (stereo not drawn) [compound 272] | < 10 nM | 10 to 100 nM | < 100 nM | < 100 nM | 100 to 1000 nM | – | – | –
2 | CC(C)n1cnc2c(F)nc(-c3ccnc(Nc4ccc(N5CCNCC5=O)cn4)n3)cc21 [compound 273] | < 10 nM | 10 to 100 nM | < 100 nM | < 100 nM | 10 to 100 nM | – | – | –
3 | Cc1nc2c(F)nc(-c3ccnc(Nc4ccc(N5CCNCC5=O)cn4)n3)cc2n1C(C)C [compound 276] | < 10 nM | < 10 nM | < 100 nM | < 100 nM | 10 to 100 nM | – | – | –
4 | CC(C)n1cnc2c(F)nc(-c3nc(Nc4ccc(N5CCC(N(C)C)CC5=O)cn4)ncc3Cl)cc21 (stereo not drawn) [compound 278] | < 10 nM | 10 to 100 nM | < 100 nM | < 100 nM | 100 to 1000 nM | – | – | –
5 | Cc1cnc(Nc2ccc(N3CCC(N(C)C)CC3=O)cn2)nc1-c1cc2c(ncn2C(C)C)c(F)n1 (stereo not drawn) [compound 279] | < 10 nM | 10 to 100 nM | < 100 nM | < 100 nM | 100 to 1000 nM | – | – | –
6 | CC(C)n1cnc2c(F)nc(-c3ccnc(Nc4ccc(N5CCC(C)(N)CC5=O)cc4)n3)cc21 (stereo not drawn) [compound 280] | < 10 nM | < 10 nM | < 100 nM | < 100 nM | < 10 nM | – | – | –
7 | CC(C)n1cnc2c(F)nc(-c3ccnc(Nc4ccc(N5CCC(N(C)C)CC5=O)cc4)n3)cc21 (stereo not drawn) [compound 281] | < 10 nM | < 10 nM | < 100 nM | < 100 nM | < 10 nM | – | – | –
8 | CC(C)n1cnc2c(F)nc(-c3ccnc(Nc4ccc(N5CCCNC5=O)cc4)n3)cc21 [compound 282] | < 10 nM | < 10 nM | < 100 nM | < 100 nM | < 10 nM | – | – | –
9 | CC(C)n1cnc2c(F)nc(-c3ccnc(Nc4ccc(N5CCCC(N(C)C)C5=O)cn4)n3)cc21 (stereo not drawn) [compound 283] | < 10 nM | < 10 nM | < 100 nM | < 100 nM | > 1000 nM | – | – | –
10 | CCN1CCN(Cc2ccc(Nc3nccc(-c4cc5c(ncn5C(C)C)c(F)n4)n3)nc2)CC1 [compound 285] | < 10 nM | 10 to 100 nM | < 100 nM | < 100 nM | > 1000 nM | – | – | –
11 | CC(C)n1cnc2c(F)nc(-c3ccnc(Nc4ccc(N5CCNCC5)cn4)n3)cc21 [compound 286] | < 10 nM | 10 to 100 nM | < 100 nM | < 100 nM | 100 to 1000 nM | – | – | –
12 | CC(C)n1cnc2c(F)nc(-c3ccnc(Nc4ccc(N5CCCC(N)C5=O)cc4)n3)cc21 (stereo not drawn) [compound 293] | < 10 nM | < 10 nM | < 100 nM | < 100 nM | 10 to 100 nM | – | – | –
13 | CCN1CC2CC1CN2c1ccc(Nc2nccc(-c3cc4c(ncn4C(C)C)c(OC)n3)n2)nc1 (stereo not drawn) [compound 312] | – | – | 100 to 500 nM | < 100 nM | – | < 10 nM | 10 to 100 nM | > 1000 nM
14 | COc1nc(-c2ccnc(Nc3ccc(N4CCC(N5CCC5)CC4=O)cn3)n2)cc2c1ncn2C(C)C (stereo not drawn) [compound 314] | – | – | < 100 nM | < 100 nM | – | < 10 nM | 10 to 100 nM | 10 to 100 nM
15 | COc1nc(-c2ccnc(Nc3ccc(N4CCC(N5CC(F)(F)C5)CC4=O)cn3)n2)cc2c1ncn2C(C)C (stereo not drawn) [compound 315] | – | – | 100 to 500 nM | < 100 nM | – | < 10 nM | 10 to 100 nM | 100 to 1000 nM
